Assay results from article PMC5643073 (ACS combinatorial science, 2017).

Assays:
in vitro = conditions: human
Cytotoxicity assay = conditions: human, HEK293T cells

## Cc1cc(SCc2sc(-c3ccc(C(F)(F)F)cc3)nc2C)ccc1OCC(=O)O [Compound 13]
In vitro
  CC50 at 18 h: > 33 µM

## Cc1cc(SCc2sc(-c3ccc(C(F)(F)F)c(F)c3)nc2C)ccc1OCC(=O)O [Compound 31]
Cytotoxicity assay
  CC50 at 18 h: > 50 µM
